The values below come from patent US7323303B2, “Modified β-lactamases and uses thereof” (priority 2003, dated 2008).

Each structure is given as a SMILES string.

Assay [1] has as its target T1, E166Cf enzyme (Bacillus cereus, UniProt P00809, E185C).
T1 construct: made in house; host or cells: B. subtilis 1A304 (φ105MU331); then labelled chemically
T1 sequence (P00809 28-306 E185C): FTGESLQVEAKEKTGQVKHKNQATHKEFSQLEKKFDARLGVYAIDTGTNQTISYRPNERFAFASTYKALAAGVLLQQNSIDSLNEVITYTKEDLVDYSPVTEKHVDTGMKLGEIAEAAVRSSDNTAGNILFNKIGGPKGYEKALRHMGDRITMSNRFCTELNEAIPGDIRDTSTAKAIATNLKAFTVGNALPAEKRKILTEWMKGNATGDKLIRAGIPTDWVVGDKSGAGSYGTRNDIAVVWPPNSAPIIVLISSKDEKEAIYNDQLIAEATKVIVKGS
Kind of assay: Time-resolved fluorescence of E166Cf enzyme with penicillins and cephalosporins. The format is biochemical. Conditions: E166Cf 1.2×10^−7 M. On the procedure: Fluorescence measurements of the E166Cf enzyme in the presence of penicillin G, penicillin V, ampicillin, cefuroxime, cefoxitin and moxalactam were performed on a Perkin Elmer LS50B spectrofluorometer. For time-resolved fluorescence measurement, excitation and emission wavelengths were set at 494 and 515 nm respectively. Both excitation and emission slit widths were set at 5 nm. All fluorescence measurements were performed at room temperature.
With penicillin G as substrate, the fluorescence signal of the E166Cf enzyme (1.2×10^−7 M) at 515 nm in 50 mM phosphate buffer (pH 7.0) increases as a function of the antibiotic concentration (FIG. 4). The time-resolved fluorescence signals of the E166Cf enzyme at 515 nm were also measured with various concentrations of penicillin G (FIG. 5). At low antibiotic concentration (1.0×10^−7 and 1.0×10^−6 M), the fluorescence intensity of the E166Cf enzyme increases gradually and then declines. At high antibiotic concentration (1.0×10^−5 and 1.0×10^−4 M), the fluorescence signal increases instantaneously and levels off to a plateau. The fluorescence signal stays at the plateau for a certain length of time and then declines afterwards. Similar results were obtained with penicillin V and ampicillin (FIGS. 6 and 7).
With cefuroxime, cefoxitin and moxalactam as substrates, the fluorescence intensities of the E166Cf enzyme (1.2×10^−7 M) at 515 nm in 50 mM phosphate buffer (pH 7.0) also increase as a function of antibiotic concentration (FIGS. 8 to 10).
At high substrate concentration (1.0×10^−5 and 1.0×10^−4 M), the penicillin substrates rapidly occupy the active sites to form the ES complexes, thus switching on the fluorescence of the fluorescein labels instantaneously. […] This can be verified by the fact that the ‘plateau time’ (8 and 22 min for 1.0×10^−5 and 1.0×10^−4 M penicillin G respectively) is consistent with the ‘substrate hydrolysis time’ determined by spectrophotometric assays (7 and 20 min for 1.0×10^−5 and 1.0×10^−4 M penicillin G respectively). When most of the penicillin substrates have been hydrolyzed to carboxylic acids, the fluorescence signal of the labeled enzyme will decline subsequently.

Assay [2] concerns the target T1, E166Cf enzyme. Kind of assay: Detection of β-lactam antibiotics in milk by E166Cf fluorescence. The settings on record: untreated milk; E166Cf 1.2×10^−7 M. On the procedure: Fluorescence measurements of the E166Cf enzyme in milk in the presence of penicillin G and ampicillin were performed on a FLUOstar microplate reader (BMG Labtechnologies) equipped with two sample injectors. Excitation and emission filters of 485 and 520 nm respectively were used. Milk (pasteurized and homogenized, Nestle Dairy Farm) was purchased at a local supermarket. The labeled enzyme was mixed with the milk sample in a 96-well microtiter plate (Corning Costar). The antibiotics were then added to the mixtures by the injectors.
FIGS. 21 and 22 show the results from the time-resolved fluorescence measurements of the labeled enzyme (1.2×10^−7 M) in untreated milk in the presence of various concentrations of penicillin G and ampicillin respectively.

Assay [3] deals with T2, E. coli TEM-1 β-lactamase (Escherichia coli, UniProt P62593).
T2 construct: made in house; host or cells: E. coli BL21(DE3); whole overnight culture used undiluted, not purified
T2 sequence (P62593 24-286 limits assumed): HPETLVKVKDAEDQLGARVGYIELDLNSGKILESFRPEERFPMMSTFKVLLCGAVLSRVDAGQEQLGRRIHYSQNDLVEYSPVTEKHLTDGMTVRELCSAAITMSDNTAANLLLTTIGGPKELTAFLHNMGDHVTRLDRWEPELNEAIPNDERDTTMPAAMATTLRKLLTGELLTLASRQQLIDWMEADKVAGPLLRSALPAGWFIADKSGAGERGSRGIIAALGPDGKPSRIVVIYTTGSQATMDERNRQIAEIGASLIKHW
Kind of assay: Drug screening: E166Cf fluorescence in presence of bacterial β-lactamase culture. The format is biochemical. On the set-up: key: −: Decline in fluorescence signal (presence of beta-lactam hydrolysis); +: No decline in fluorescence signal (absence of beta-lactam hydrolysis). Conditions: E. coli TEM-1 culture, undiluted; antibiotic 1.0×10^−4 M; E166Cf 1.2×10^−7 M. On the procedure:
The use of the E166Cf enzyme in screening bacterial β-lactamases against various β-lactam antibiotics was investigated. The principle of our method is that when both E166Cf and bacterial β-lactamase are incubated with ‘β-lactamase-unstable’ antibiotics, the fluorescence of the E166Cf enzyme will be suppressed because of the greater catalytic efficiency of the bacterial enzyme. In contrast, when bacterial β-lactamases are screened against ‘β-lactamase-resistant’ antibiotics, the fluorescence of the E166Cf enzyme will be enhanced because of the poor hydrolytic activity of the bacterial enzyme. Thus, any β-lactam antibiotic that causes the labeled enzyme to increase its fluorescence intensity in the presence of bacterial β-lactamases can be used in clinical treatments.
The TEM-1 β-lactamase was expressed in E. coli. BL21(DE3). Preparation of the TEM-1 β-lactamase was performed as follows. A bacterial strain was streaked on an agar plate containing 100 μg/ml ampicillin, and the plate was incubated at 37° C. for 24 h. A single bacterial colony from the plate was inoculated into 100 ml of sterilized LB broth (28 g/l) which was then incubated at 37° C. with shaking at 280 rpm overnight. After overnight incubation, the bacterial culture was harvested and stored at −20° C.
Fluorescence measurements of the E166Cf enzyme in the presence of bacterial cultures and β-lactam antibiotics were performed on a FLUOstar microplate reader (BMG Labtechnologies) equipped with two sample injectors. Excitation and emission filters of 485 and 520 nm respectively were used. For B. cereus penPC β-lactamase, B. licheniformis penP β-lactamase and B. cereus β-lactamase II, the labeled enzymes were mixed with the bacterial cultures, and the mixtures were made up to 300 μl with 50 mM phosphate buffer (pH 7.0) in a 96-well microtiter plate (Corning Costar). For the purpose of comparison, B. subtilis cultures, which produced no β-lactamase, were set up as negative controls. For E. coli. TEM-1 β-lactamase, the labeled enzymes were mixed with the bacterial cultures without dilution. E. coli. cultures, which produced no β-lactamase, were set up as negative controls for comparison. The antibiotics were then added to the bacterial samples by the injectors.
The results from the time-resolved fluorescence measurements of the labeled enzyme (1.2×10^−7 M) in the presence of various bacterial cultures and β-lactam antibiotics (1.0×10^−4 M) are shown in FIGS. 23 to 26.

In the case of `CC1(C)S[C@@H]2[C@H](NC(=O)Cc3ccccc3)C(=O)N2[C@H]1C(=O)O` [Penicillin G, penicillin G], the “plateau time of fluorescence signal” value is recorded as 22 min at E166Cf enzyme [1] (1.0×10^−4 M antibiotic) and 8 min on E166Cf enzyme [1] (1.0×10^−5 M antibiotic). The “lowest concentration detected by the labeled enzyme” value at E166Cf enzyme [2] is reported as 10^−6 M. The “fluorescence signal of E166Cf (beta-lactam hydrolysis)” value in assay [3] is given as “−”.
